This passage reports activity coefficient results from the NIST ThermoML archive (doi:10.1021/je1005517).

The nature of the series: activity coefficient (dimensionless); of the first substance listed, at infinite dilution; xn = mol fraction of the nth substance listed. The conditions noted are these: Liquid, GC, x1 = 0.

Molecules are shown by their SMILES. ± gives the expanded uncertainty stated by the source.

Regarding `ClC(Cl)(Cl)Cl` [tetrachloromethane] + CCCCCCCCCCCCCCCCCCCCO, the activity coefficient (338.15 K, 101 kPa) was 0.0862 ± 0.0052; the activity coefficient (343.15 K, 101 kPa) was 0.081 ± 0.0049; the activity coefficient (348.15 K, 101 kPa) turned out to be 0.076 ± 0.0046; the activity coefficient (353.15 K, 101 kPa) was 0.0714 ± 0.0043.
Regarding `CCO` [ethanol] + CCCCCCCCCCCCCCCCCCCCO, the activity coefficient reads like this: (338.15 K, 101 kPa) 0.124 ± 0.0075; (343.15 K, 101 kPa) 0.117 ± 0.007; (348.15 K, 101 kPa) 0.106 ± 0.0063; (353.15 K, 101 kPa) 0.095 ± 0.0057.
Consider `CCCCO` [butan-1-ol] + CCCCCCCCCCCCCCCCCCO, for which the activity coefficient amounted to 0.154 ± 0.0092 (333.15 K, 101.3 kPa); 0.136 ± 0.008 (338.15 K, 101.3 kPa); 0.121 ± 0.0073 (343.15 K, 101.3 kPa); 0.11 ± 0.0066 (348.15 K, 101.3 kPa); 0.0992 ± 0.006 (353.15 K, 101.3 kPa).
For `CCCCOC(C)=O` [butyl ethanoate] + CCCCCCCCCCCCCCCCCCO the same measures were 0.0526 ± 0.0032, 0.0468 ± 0.0028, 0.0428 ± 0.0026, 0.0391 ± 0.0023 and 0.0358 ± 0.0021.
Turning to `ClCCl` [dichloromethane] + CCCCCCCCCCCCCCCCCCO, the activity coefficient by setting is: (333.15 K, 101.3 kPa) 0.0262 ± 0.0016; (338.15 K, 101.3 kPa) 0.0233 ± 0.0014; (343.15 K, 101.3 kPa) 0.0212 ± 0.0013; (348.15 K, 101.3 kPa) 0.0194 ± 0.0012; (353.15 K, 101.3 kPa) 0.0178 ± 0.0011.
With `CO` [methanol] + CCCCCCCCCCCCCCCCCCO, the activity coefficient by setting is: (333.15 K, 101 kPa) 0.0423 ± 0.0025; (338.15 K, 101 kPa) 0.0386 ± 0.0023; (343.15 K, 101 kPa) 0.0357 ± 0.0021; (348.15 K, 101 kPa) 0.033 ± 0.002; (353.15 K, 101 kPa) 0.0306 ± 0.0018.
For `CCOCC` [diethyl ether] + CCCCCCCCCCCCCCCCCCCCO, the activity coefficient stood at 0.0652 ± 0.0039 (338.15 K, 101 kPa); 0.0624 ± 0.0037 (343.15 K, 101 kPa); 0.0598 ± 0.0036 (348.15 K, 101 kPa); 0.0572 ± 0.0034 (353.15 K, 101 kPa).
On to `CCCCCl` [1-chlorobutane] + CCCCCCCCCCCCCCCCCCO, for which the activity coefficient by setting is: (333.15 K, 101 kPa) 0.0389 ± 0.0023; (338.15 K, 101 kPa) 0.036 ± 0.0022; (343.15 K, 101 kPa) 0.0338 ± 0.002; (348.15 K, 101 kPa) 0.0321 ± 0.0019; (353.15 K, 101 kPa) 0.03 ± 0.0018.
